Measurements as given in patent US20050143433A1, “Substituted heterocycles useful for treating HCV infection” (priority 2003, published 2005).

Test system: HCV replicon (5-2 Luc replicon-comprising cells)
Assay: HCV replicon luciferase emission assay
Format: cell-based
Details: Hepatitis C virus; 5-2 Luc replicon cells, 24 hours with compound, 50% reduction in luciferase emission
Source text: The inhibitory activity of certain exemplary compounds of the invention was confirmed using an HCV replicon assay. The HCV replicon can include such features as the HCV 5′ untranslated region including the HCV IRES, the HCV 3′ untranslated region, selected HCV genes encoding HCV polypeptides, selectable markers, and a reporter gene such as luciferase, GFP, etc. In the assay, actively dividing 5-2 Luc replicon-comprising cells (obtained from Rolf Bartenschlager; see Lohmann et al., 1999, Science 285:110-113) were seeded at a density of between about 5,000 and 7,500 cells/well onto 96 well plates (about 90 μl of cells per well) and incubated at 37° C. and 5% CO2 for 24 hours. Then, the test compound (in a volume of about 10 μl) was added to the wells at various concentrations and the cells were incubated for an additional 24 hours before luciferase assay. The media was aspirated from each well and Bright-Glo (Promega, Madison, Wis.) luciferase assay reagents were added to each well according to the manufacturer's instructions. Briefly, the Bright-Glo reagent was diluted 1:1 with PBS and 100 μl of diluted reagent was added to each well. After 5 min of incubation at room temperature, luciferin emission was quantified with a luminometer. In this assay, the amount of test compound that yielded a 50% reduction in luciferase emission (IC50) was determined.

O=C1c2ccccc2-c2onc3ccc(N4CC4)c1c23 [Compound 2]
IC50: 800 nM
